Results on 16 compounds are retold here after patent US20230293518A1 (Edgewise Therapeutics, Inc., priority 2020, published 2023).

For the experiment, the target named is skeletal myofibrils (myosin ATPase). The experiment in a line: Skeletal Myofibril ATPase Assay. Format: biochemical. Summed up:
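IC50 came from four-parameter logistic fits, bottom constrained ≥0, of (Max−Min) A340 values normalised to 1% DMSO controls. Readings were taken kinetically over 45 min at 1.5-2 min intervals, with ADP from myofibril myosin ATPase coupled through PK-LDH to NADH oxidation. Buffer was pCa (PIPES/CaCl2/EGTA), pH 7.0.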

Bounds are passed on as bounds.

On to `CCNC(=O)Cn1nc(-c2ccc(OCCC(F)(F)F)nc2)ccc1=O` [Compound I-10, N-ethyl-2-[6-oxo-3-[6-(3,3,3-trifluoropropoxy)pyridin-3-yl]-1,6-dihydropyridazin-1-yl]acetamide], for which the IC50 (in general, the concentration needed to halve the response being measured) (Table 4A) lay within 10 to 100 µM.

In turn, `CCNC(=O)Cn1nc(-c2cnc(OCC3CC(F)(F)C3)nc2)ccc1=O` [Compound I-77, 2-(3-(2-((3,3-difluorocyclobutyl)methoxy)pyrimidin-5-yl)-6-oxopyridazin-1(6H)-yl)-N-ethylacetamide] yielded an IC50 (Table 4A) of 10 to 100 µM.

Regarding `COc1ccc(-c2ccc(=O)n(CC(=O)NCc3ccccc3Cl)n2)c(C)c1` [IIIa-22, N-(2-chlorobenzyl)-2-(3-(4-methoxy-2-methylphenyl)-6-oxopyridazin-1(6H)-yl)acetamide], the IC50 (Table 4C) lay in the range of 10 to 100 µM.

`C[C@H](NC(=O)Cn1nc(-c2ccc(OC(F)F)nc2)ccc1=O)c1ccnn1C` [Compound I-29, (S)-2-(3-(6-(difluoromethoxy)pyridin-3-yl)-6-oxopyridazin-1(6H)-yl)-N-(1-(1-methyl-1H-pyrazol-5-yl)ethyl)acetamide] registered a half-maximal inhibitory concentration (IC50) (Table 4A) greater than 100 µM.

`COc1ccc(-c2ccc(=O)n(CC(=O)NCc3ccccn3)n2)cc1` [IIIa-30, 2-(3-(4-methoxyphenyl)-6-oxopyridazin-1(6H)-yl)-N-(pyridin-2-ylmethyl)acetamide] had an IC50 (Table 4C) greater than 100 µM.

Regarding `COc1ccc(-c2ccc(=O)n(CC(=O)NCC(C)C)n2)cc1` [IIIb-29, N-isobutyl-2-(3-(4-methoxyphenyl)-6-oxopyridazin-1(6H)-yl)acetamide], the IC50 (Table 4C) fell in the range of 10 to 100 µM.

For `CCNC(=O)Cn1nc(-c2ccc(CC(F)(F)F)nc2)ccc1=O` [Compound I-37, N-ethyl-2-(6-oxo-3-(6-(2,2,2-trifluoroethyl)pyridin-3-yl)pyridazin-1(6H)-yl)acetamide], the IC50 (Table 4A) fell in the range of 10 to 100 µM.

In turn, `O=C(Cn1nc(-c2ccccc2)ccc1=O)NC1CC1` [IIIc-65, N-cyclopropyl-2-(6-oxo-3-phenylpyridazin-1(6H)-yl)acetamide] came in with an IC50 (Table 4C) greater than 100 µM.

`CCNC(=O)Cn1nc(-c2ccc(Oc3ccc(F)cc3)nc2)ccc1=O` [Compound I-21, N-ethyl-2-(3-(6-(4-fluorophenoxy)pyridin-3-yl)-6-oxopyridazin-1(6H)-yl)acetamide] returned an IC50 (Table 4A) of 10 to 100 µM.

In the case of `CC(C)NC(=O)Cn1nc(-c2ccccc2)ccc1=O` [IIIc-63, N-isopropyl-2-(6-oxo-3-phenylpyridazin-1(6H)-yl)acetamide], the IC50 (Table 4C) is greater than 100 µM.

Consider `COc1ccc(-c2ccc(=O)n(CC(=O)NCCc3ccccc3)n2)c(F)c1` [IIIb-9, 2-(3-(2-fluoro-4-methoxyphenyl)-6-oxopyridazin-1(6H)-yl)-N-phenethylacetamide], for which the IC50 (Table 4C) was less than 10 µM.

Turning to `O=C(Cn1nc(-c2ccc(OC(F)F)cc2)ccc1=O)NCC(F)(F)F` [II-11, 2-(3-(4-(difluoromethoxy)phenyl)-6-oxopyridazin-1(6H)-yl)-N-(2,2,2-trifluoroethyl) acetamide], for the setting “Table 4B”, the half-inhibitory concentration (IC50) lay in the range of 10 to 100 µM.

`CCNC(=O)Cn1nc(-c2ccc(OC(F)(F)F)nc2)ccc1=O` [Compound I-14, N-ethyl-2-(6-oxo-3-(6-(trifluoromethoxy)pyridin-3-yl)pyridazin-1(6H)-yl)acetamide] had an IC50 (Table 4A) of 10 to 100 µM.

For the compound `CCNC(=O)Cn1nc(-c2ccc(OCC3COC3)nc2)ccc1=O` [Compound I-22, N-ethyl-2-(3-(6-(oxetan-3-ylmethoxy)pyridin-3-yl)-6-oxopyridazin-1(6H)-yl)acetamide], the IC50 (Table 4A) lay in the range of 10 to 100 µM.

Take `CC1(NC(=O)Cn2nc(-c3ccc(OC(F)F)nc3)ccc2=O)CCC1` [Compound I-15, 2-(3-(6-(difluoromethoxy)pyridin-3-yl)-6-oxopyridazin-1(6H)-yl)-N-(1-methylcyclobutyl) acetamide]: for the setting “Table 4A”, the IC50 was 10 to 100 µM.

Take `O=C(Cn1nc(-c2ccc3c(c2)OCCO3)ccc1=O)Nc1ccccc1F` [IIIb-6, 2-(3-(2,3-dihydrobenzo[b][1,4]dioxin-6-yl)-6-oxopyridazin-1(6H)-yl)-N-(2-fluorophenyl)acetamide]: for the setting “Table 4C”, the IC50 is less than 10 µM.
